Measurements taken from ChEMBL document CHEMBL3885861, “Open TG-GATES”.

Species: Rattus norvegicus
Test: Open TG-GATES - Regimen: Daily Repeat
Assay type: toxicity, organism-based, Sprague-Dawley
Design: regimen Daily Repeat, gender Male, age 6 weeks
Settings: in vivo, po, route gavage; for APTT / Bas / Eos / Fbg / Hb / Ht / Lym / MCH / MCHC / MCV / Mono / Neu / PT / Plat / RBC / Ret / WBC: tissue Blood; for A/G / ALP / ALT / AST / BUN / CRE / Ca / Cl / DBIL / GLC / IP / K / LDH / Na / PL / RALB / TBIL / TC / TG / TP / gamma-GTP: tissue Plasma
[1] = 0 mg/kg, 72 h, dose level Control, time 3 day
[2] = 0 mg/kg, […], dose level Control, time 7 day
[3] = 0 mg/kg, […], dose level Control, time 14 day
[4] = 0 mg/kg, […], dose level Control, time 28 day
[5] = 10 mg/kg, 72 h, dose level Low, time 3 day
[6] = 10 mg/kg, […], dose level Low, time 7 day
[7] = 10 mg/kg, […], dose level Low, time 14 day
[8] = 10 mg/kg, […], dose level Low, time 28 day

SMILES: Cn1cc[nH]c1=S [METHIMAZOLE]
- TERMINAL_BW [1]: 217.3 g
- APTT [1]: 21.2 s
- Bas [1]: 0%
- Eos [1]: 1%
- Fbg [1]: 310.8 mg/dL
- Hb [1]: 13.8 g/dL
- Ht [1]: 38.2%
- Lym [1]: 84.8%
- MCH [1]: 22.7 pg
- MCHC [1]: 36.1%
- MCV [1]: 62.8 fL
- Mono [1]: 1.6%
- Neu [1]: 11.8%
- PT [1]: 16.2 s
- Plat [1]: 126.3 x10_4/uL
- RBC [1]: 609 x10_4/ul
- Ret [1]: 6.7%
- WBC [1]: 107.5 x10_2/uL
- A/G [1]: 1.3
- ALP [1]: 1736 IU/L
- ALT [1]: 41.4 IU/L
- AST [1]: 68 IU/L
- BUN [1]: 17 mg/dL
- CRE [1]: 0.1 mg/dL
- Ca [1]: 10.8 mg/dL
- Cl [1]: 105.8 meq/L
- DBIL [1]: 0.002 mg/dL
- GLC [1]: 190.8 mg/dL
- IP [1]: 6.8 mg/dL
- K [1]: 4.1 meq/L
- LDH [1]: 187.8 IU/L
- Na [1]: 141.8 meq/L
- PL [1]: 161 mg/dL
- RALB [1]: 3.2 g/dL
- TBIL [1]: 0.014 mg/dL
- TC [1]: 89.4 mg/dL
- TG [1]: 93.8 mg/dL
- TP [1]: 5.7 g/dL
- gamma-GTP [1]: 1.2 IU/L
- TERMINAL_BW [2]: 252.2 g
- TERMINAL_BW [3]: 307.5 g
- TERMINAL_BW [4]: 373.3 g
- APTT [2]: 20.9 s
- Bas [2]: 0%
- Eos [2]: 0.8%
- Fbg [2]: 321.4 mg/dL
- Hb [2]: 14.2 g/dL
- Ht [2]: 38.9%
- Lym [2]: 80.2%
- MCH [2]: 22.3 pg
- MCHC [2]: 36.5%
- MCV [2]: 60.9 fL
- Mono [2]: 2.6%
- Neu [2]: 15.6%
- PT [2]: 15.9 s
- Plat [2]: 115.9 x10_4/uL
- RBC [2]: 638 x10_4/ul
- Ret [2]: 5.8%
- WBC [2]: 112.3 x10_2/uL
- APTT [3]: 22.2 s
- Bas [3]: 0%
- Eos [3]: 0.6%
- Fbg [3]: 331.8 mg/dL
- Hb [3]: 13.7 g/dL
- Ht [3]: 39.4%
- Lym [3]: 80.6%
- MCH [3]: 20.5 pg
- MCHC [3]: 34.9%
- MCV [3]: 58.7 fL
- Mono [3]: 1.8%
- Neu [3]: 15.8%
- PT [3]: 16.3 s
- Plat [3]: 117.4 x10_4/uL
- RBC [3]: 672.6 x10_4/ul
- Ret [3]: 4.9%
- WBC [3]: 112.2 x10_2/uL
- APTT [4]: 22.6 s
- Bas [4]: 0%
- Eos [4]: 1%
- Fbg [4]: 316.6 mg/dL
- Hb [4]: 15.2 g/dL
- Ht [4]: 42.9%
- Lym [4]: 82.4%
- MCH [4]: 19.3 pg
- MCHC [4]: 35.3%
- MCV [4]: 54.7 fL
- Mono [4]: 2.2%
- Neu [4]: 13.2%
- PT [4]: 16.4 s
- Plat [4]: 97.4 x10_4/uL
- RBC [4]: 785.4 x10_4/ul
- Ret [4]: 2.6%
- WBC [4]: 113.4 x10_2/uL
- A/G [2]: 1.2
- ALP [2]: 1790.2 IU/L
- ALT [2]: 39 IU/L
- AST [2]: 75.8 IU/L
- BUN [2]: 17.2 mg/dL
- CRE [2]: 0.2 mg/dL
- Ca [2]: 10.6 mg/dL
- Cl [2]: 107 meq/L
- DBIL [2]: 0 mg/dL
- GLC [2]: 195.4 mg/dL
- IP [2]: 7.5 mg/dL
- K [2]: 4.1 meq/L
- LDH [2]: 290.8 IU/L
- Na [2]: 142.2 meq/L
- PL [2]: 163.4 mg/dL
- RALB [2]: 3 g/dL
- TBIL [2]: 0.002 mg/dL
- TC [2]: 84.8 mg/dL
- TG [2]: 126 mg/dL
- TP [2]: 5.5 g/dL
- gamma-GTP [2]: 1 IU/L
- A/G [3]: 1.1
- ALP [3]: 1783.8 IU/L
- ALT [3]: 42.8 IU/L
- AST [3]: 71 IU/L
- BUN [3]: 18.2 mg/dL
- CRE [3]: 0.2 mg/dL
- Ca [3]: 10.6 mg/dL
- Cl [3]: 106 meq/L
- DBIL [3]: 0 mg/dL
- GLC [3]: 182 mg/dL
- IP [3]: 7 mg/dL
- K [3]: 4.3 meq/L
- LDH [3]: 198.6 IU/L
- Na [3]: 142.2 meq/L
- PL [3]: 158.6 mg/dL
- RALB [3]: 3 g/dL
- TBIL [3]: 0.014 mg/dL
- TC [3]: 75.4 mg/dL
- TG [3]: 150.2 mg/dL
- TP [3]: 5.8 g/dL
- gamma-GTP [3]: 1.6 IU/L
- A/G [4]: 1.1
- ALP [4]: 1110.8 IU/L
- ALT [4]: 40.4 IU/L
- AST [4]: 65.8 IU/L
- BUN [4]: 18.4 mg/dL
- CRE [4]: 0.2 mg/dL
- Ca [4]: 10.5 mg/dL
- Cl [4]: 105.4 meq/L
- DBIL [4]: 0.002 mg/dL
- GLC [4]: 198.8 mg/dL
- IP [4]: 6.3 mg/dL
- K [4]: 4.4 meq/L
- LDH [4]: 191.8 IU/L
- Na [4]: 142.4 meq/L
- PL [4]: 149.2 mg/dL
- RALB [4]: 3.2 g/dL
- TBIL [4]: 0.002 mg/dL
- TC [4]: 65.8 mg/dL
- TG [4]: 168 mg/dL
- TP [4]: 6 g/dL
- gamma-GTP [4]: 1 IU/L
- TERMINAL_BW [5]: 223.1 g
- APTT [5]: 19.4 s
- Bas [5]: 0%
- Eos [5]: 1.2%
- Fbg [5]: 325.2 mg/dL
- Hb [5]: 13.7 g/dL
- Ht [5]: 38.6%
- Lym [5]: 81.8%
- MCH [5]: 21.9 pg
- MCHC [5]: 35.6%
- MCV [5]: 61.5 fL
- Mono [5]: 2.6%
- Neu [5]: 13.6%
- PT [5]: 16.4 s
- Plat [5]: 128.5 x10_4/uL
- RBC [5]: 628.2 x10_4/ul
- Ret [5]: 6.5%
- WBC [5]: 95 x10_2/uL
- A/G [5]: 1.1
- ALP [5]: 1789.2 IU/L
- ALT [5]: 40.8 IU/L
- AST [5]: 65.6 IU/L
- BUN [5]: 16.8 mg/dL
- CRE [5]: 0.1 mg/dL
- Ca [5]: 11.1 mg/dL
- Cl [5]: 106.8 meq/L
- DBIL [5]: 0 mg/dL
- GLC [5]: 184 mg/dL
- IP [5]: 6.3 mg/dL
- K [5]: 4.2 meq/L
- LDH [5]: 170 IU/L
- Na [5]: 141.8 meq/L
- PL [5]: 183 mg/dL
- RALB [5]: 3.1 g/dL
- TBIL [5]: 0.004 mg/dL
- TC [5]: 101.6 mg/dL
- TG [5]: 128.6 mg/dL
- TP [5]: 5.8 g/dL
- gamma-GTP [5]: 1.2 IU/L
- TERMINAL_BW [6]: 253.1 g
- TERMINAL_BW [7]: 300.3 g
- TERMINAL_BW [8]: 356.4 g
- APTT [6]: 20.3 s
- Bas [6]: 0%
- Eos [6]: 1%
- Fbg [6]: 333 mg/dL
- Hb [6]: 13.9 g/dL
- Ht [6]: 38.1%
- Lym [6]: 80%
- MCH [6]: 22.3 pg
- MCHC [6]: 36.4%
- MCV [6]: 61.3 fL
- Mono [6]: 2.6%
- Neu [6]: 15.6%
- PT [6]: 16.4 s
- Plat [6]: 121.5 x10_4/uL
- RBC [6]: 622.8 x10_4/ul
- Ret [6]: 5.6%
- WBC [6]: 102.3 x10_2/uL
- APTT [7]: 22.1 s
- Bas [7]: 0%
- Eos [7]: 0.8%
- Fbg [7]: 318.8 mg/dL
- Hb [7]: 14 g/dL
- Ht [7]: 40.7%
- Lym [7]: 85.2%
- MCH [7]: 20.1 pg
- MCHC [7]: 34.5%
- MCV [7]: 58.4 fL
- Mono [7]: 2%
- Neu [7]: 11.6%
- PT [7]: 16.5 s
- Plat [7]: 110.2 x10_4/uL
- RBC [7]: 697 x10_4/ul
- Ret [7]: 4.3%
- WBC [7]: 101.8 x10_2/uL
- APTT [8]: 23.7 s
- Bas [8]: 0%
- Eos [8]: 1%
- Fbg [8]: 306 mg/dL
- Hb [8]: 15 g/dL
- Ht [8]: 42.4%
- Lym [8]: 84.4%
- MCH [8]: 19.4 pg
- MCHC [8]: 35.4%
- MCV [8]: 54.8 fL
- Mono [8]: 2.4%
- Neu [8]: 11%
- PT [8]: 16.7 s
- Plat [8]: 87.5 x10_4/uL
- RBC [8]: 773 x10_4/ul
- Ret [8]: 2%
- WBC [8]: 108.5 x10_2/uL
- A/G [6]: 1.1
- ALP [6]: 1430.4 IU/L
- ALT [6]: 38 IU/L
- AST [6]: 65.8 IU/L
- BUN [6]: 17.4 mg/dL
- CRE [6]: 0.2 mg/dL
- Ca [6]: 10.8 mg/dL
- Cl [6]: 107.4 meq/L
- DBIL [6]: 0 mg/dL
- GLC [6]: 177.8 mg/dL
- IP [6]: 7.1 mg/dL
- K [6]: 4.1 meq/L
- LDH [6]: 232.4 IU/L
- Na [6]: 142 meq/L
- PL [6]: 171.8 mg/dL
- RALB [6]: 3 g/dL
- TBIL [6]: 0 mg/dL
- TC [6]: 90.8 mg/dL
- TG [6]: 149 mg/dL
- TP [6]: 5.9 g/dL
- gamma-GTP [6]: 1 IU/L
- A/G [7]: 1.1
- ALP [7]: 1277.4 IU/L
- ALT [7]: 40.6 IU/L
- AST [7]: 62.6 IU/L
- BUN [7]: 17.6 mg/dL
- CRE [7]: 0.2 mg/dL
- Ca [7]: 10.6 mg/dL
- Cl [7]: 106.6 meq/L
- DBIL [7]: 0 mg/dL
- GLC [7]: 176.8 mg/dL
- IP [7]: 6.1 mg/dL
- K [7]: 4.1 meq/L
- LDH [7]: 197.6 IU/L
- Na [7]: 142.2 meq/L
- PL [7]: 170.2 mg/dL
- RALB [7]: 3.2 g/dL
- TBIL [7]: 0.01 mg/dL
- TC [7]: 96 mg/dL
- TG [7]: 134 mg/dL
- TP [7]: 6.1 g/dL
- gamma-GTP [7]: 2 IU/L
- A/G [8]: 1.1
- ALP [8]: 1026.6 IU/L
- ALT [8]: 29.8 IU/L
- AST [8]: 51 IU/L
- BUN [8]: 19.2 mg/dL
- CRE [8]: 0.2 mg/dL
- Ca [8]: 10.7 mg/dL
- Cl [8]: 106.4 meq/L
- DBIL [8]: 0.002 mg/dL
- GLC [8]: 184.8 mg/dL
- IP [8]: 5.9 mg/dL
- K [8]: 4.1 meq/L
- LDH [8]: 143.8 IU/L
- Na [8]: 142.6 meq/L
- PL [8]: 160 mg/dL
- RALB [8]: 3.5 g/dL
- TBIL [8]: 0.004 mg/dL
- TC [8]: 81.2 mg/dL
- TG [8]: 165.4 mg/dL
- TP [8]: 6.6 g/dL
- gamma-GTP [8]: 1.8 IU/L
